Patent publication US9605283B2, “Microorganism modified for the production of 1,3-propanediol” (INSTITUT NATIONAL DES SCIENCES APPLIQUÉES, priority 2012, dated 2017)
Substitutions are numbered along the chain they refer to.

Columns and labels:
Format in all cases: biochemical
[1] = biological target: T1, Escherichia coli malate dehydrogenase Ec-Mdh variant R81A I12V, SEQ ID No. 162 (Escherichia coli, UniProt P61889, I12V/R81A); experiment: DHB dehydrogenase / malate dehydrogenase kinetics, Ec-Mdh R81A I12V; details: read-out: Km (DHB); 37° C., pH 8, 10 mM NAD
T1 sequence (P61889 1-312 I12V/R81A): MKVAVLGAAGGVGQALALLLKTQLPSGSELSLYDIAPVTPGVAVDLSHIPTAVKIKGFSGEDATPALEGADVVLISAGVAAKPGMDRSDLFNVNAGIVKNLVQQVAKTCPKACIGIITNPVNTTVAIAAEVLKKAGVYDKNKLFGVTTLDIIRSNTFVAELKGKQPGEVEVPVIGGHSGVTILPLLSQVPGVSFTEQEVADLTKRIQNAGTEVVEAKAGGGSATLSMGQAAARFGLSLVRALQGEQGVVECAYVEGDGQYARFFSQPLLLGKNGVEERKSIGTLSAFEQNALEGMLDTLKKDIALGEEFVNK
Description: (§4) Activity of the cytosolic DHB dehydrogenases (Ec-Mdh, Bs-Mdh, Ll-LdhA) was assayed by following the DHB-dependent reduction of NAD^+.
(§5) The reaction mixture contained 60 mM Hepes (pH 8), 50 mM potassium chloride, 5 mM MgCl2, 10 mM NAD, (optionally, 5 mM fructose-1,6-bisphosphate (F16bP)) (all products from Sigma), and appropriate amounts of purified enzyme or cell extract. Reactions were started by adding 50 mM (L)-2,4-dihydroxybutyrate (Rhodia).
All enzymatic assays were carried out at 37° C. in 96-well flat bottomed microtiter plates in a final volume of 250 μL.

[2] = biological target: T2, Escherichia coli malate dehydrogenase Ec-Mdh variant R81A G179D, SEQ ID No. 168 (Escherichia coli, UniProt P61889, G179D/R81A); experiment: DHB dehydrogenase kinetics, Ec-Mdh R81A G179D; details: 37° C., pH 8, 10 mM NAD
T2 sequence (P61889 1-312 R81A/G179D): T1 sequence (P61889 1-312 I12V/R81A) with V12I, G179D
Description: Site-directed mutagenesis of the E. coli mdh and the B. subtilis mdh genes were carried out using the oligonucleotide pairs listed in Table 3 and the pET28-Ec-mdh and the pET28-Bs-mdh plasmids as the templates. Point mutations to change the amino acid sequence were introduced by PCR (Phusion 1U, HF buffer 20% (v/v), dNTPs 0.2 mM, direct and reverse primers 0.04 μM each, template plasmid 50 ng, water) using the oligonucleotide pairs listed in Table 3. Mutated genes contained a new restriction site listed in Table 3 (introduced using silent mutations) in addition to the functional mutation to facilitate identification of mutated clones. The PCR products were digested by DpnI at 37° C. for 1 h to remove template DNA, and transformed into competent E. coli DH5-alpha cells (NEB). The mutated plasmids were identified by restriction site analysis and verified to carry the desired mutations by DNA sequencing.
Mutant enzymes were expressed, purified and tested for DHB dehydrogenase activity as described in Example 1.
The mutation R81A in Ec-Mdh (by reference to SEQ ID No. 124) was combined with additional changes in the protein sequence.

[3] = biological target: T3, Zymomonas mobilis pyruvate decarboxylase Zm-Pdc variant G413N, SEQ ID No. 194 (Zymomonas mobilis, UniProt P06672, G413N); experiment: OHB decarboxylase / pyruvate decarboxylase kinetics, Zm-Pdc G413N; details: 37° C., pH 7, coupled to yeast alcohol dehydrogenase/NADH; read-out: Km (natural substrate, pyruvate)
T3 sequence (P06672 1-568 G413N): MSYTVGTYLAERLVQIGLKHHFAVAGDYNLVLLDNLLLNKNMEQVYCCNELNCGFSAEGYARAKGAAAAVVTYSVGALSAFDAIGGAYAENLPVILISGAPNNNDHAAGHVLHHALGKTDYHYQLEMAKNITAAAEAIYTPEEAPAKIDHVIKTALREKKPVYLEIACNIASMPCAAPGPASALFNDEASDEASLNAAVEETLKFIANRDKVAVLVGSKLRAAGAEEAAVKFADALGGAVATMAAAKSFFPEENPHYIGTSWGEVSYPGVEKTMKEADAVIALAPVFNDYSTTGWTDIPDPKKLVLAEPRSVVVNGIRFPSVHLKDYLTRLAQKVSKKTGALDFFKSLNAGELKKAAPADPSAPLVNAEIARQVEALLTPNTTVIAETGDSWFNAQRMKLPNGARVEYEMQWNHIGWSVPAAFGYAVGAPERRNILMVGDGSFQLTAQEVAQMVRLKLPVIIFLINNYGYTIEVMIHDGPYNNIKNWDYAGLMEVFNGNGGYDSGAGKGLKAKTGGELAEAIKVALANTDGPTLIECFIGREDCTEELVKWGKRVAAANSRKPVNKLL
Description: (§1) OHB decarboxylase activity was assayed by coupling the decarboxylase activity to the NADPH-dependent reduction of the released 3-hydroxypropanal by purified aldehyde reductase, YqhD, from E. coli. The decarboxylation of pyruvate was coupled to the NADH-dependent reduction of acetaldehyde catalysed by yeast alcohol dehydrogenase. Branched-chain alpha-ketoacid decarboxylase activity was measured on 4-methyl-2-oxovaleric acid by coupling to the NADH-dependent reduction of 3-methylbutanal catalysed by horse liver alcohol dehydrogenase. […] Reactions were started by adding 20 mM 2-oxo-4-hydroxybutyrate (OHB), 10 mM 4-methyl-2-oxovaleric acid (MOV), or 5 mM pyruvate.
(§2) Site-directed mutagenesis of the L. lactis kdcA and the Z. mobilis Pdc genes was carried out using the oligonucleotide pairs listed in Table 9 and the pET28-Ll-kdcA and pET28-Zm-Pdc plasmids, respectively, as the template.
(§3) Mutant enzymes were expressed, purified and tested for OHB decarboxylase, pyruvate decarboxylase and MOV decarboxylase activity as described in Example 4.

[4] = biological target: T4, Zymomonas mobilis pyruvate decarboxylase Zm-Pdc variant W392L, SEQ ID No. 192 (Zymomonas mobilis, UniProt P06672, W392L); experiment: OHB decarboxylase / pyruvate decarboxylase kinetics, Zm-Pdc W392L; details: 37° C., pH 7, coupled to yeast alcohol dehydrogenase/NADH; read-out: Km (natural substrate, pyruvate)
T4 sequence (P06672 1-568 W392L): T3 sequence (P06672 1-568 G413N) with W392L, N413G
Description: as §1, §2, §3

[5] = Malate dehydrogenase activity (natural substrate)
[6] = DHB dehydrogenase activity of cytosolic enzymes (DHB-dependent reduction of NAD+)
Description: as §4, §5
All enzymatic assays were carried out at 37° C. in 96-well flat bottomed microtiter plates in a final volume of 250 μL. The reactions were followed by the characteristic absorption of NADH at 340 nm (εNADH=6.22 mM^−1 cm^−1) or the absorbtion of DCIP at 655 nm (εDCIP=5.9 mM^−1 cm^−1) in a microplate reader (BioRad 680XR).

For `O=C(O)[C@@H](O)CCO` [DHB, (L)-2,4-dihydroxybutyrate], which Km [1] is on record?
Its Km is over 100 mM.

What about the Km [2] of the same compound?
The Km was over 100 mM.

For `CC(=O)C(=O)O` [pyruvate], which Km [3] is on record?
The Km was over 50 mM.

And the Km [4]?
Its Km is over 50 mM.

For “Bs-Mdh: (L)-malate dehydrogenase of Bacillus subtilis, wild-type, SEQ ID No. 126”, which “Max. specific activity, Natural substrate” value ([5]; natural substrate (L)-malate, Table 2) is on record?
Its value is 10.5 µmol/mg/min.

And the activity on malate ([5]; text of Example 2)?
The activity on malate was 10.9 µmol/mg/min.

What about the “DHB dehydrogenase activity (in words)” value ([6]; cytosolic wild-type enzymes) of the same compound?
Its value is “no measurable DHB dehydrogenase activity”.

And the “maximum activity on DHB” value ([6]; text of Example 2)?
The value was 0 µmol/mg/min.

And the “Max. specific activity, DHB” value ([6]; when not saturated, activity estimated at 50 mM substrate, Table 2)?
Its value is 0 µmol/mg/min.
